Measured values as given in the supplement of paper PMC9663587.

Columns and labels:
MDAMB231 = test: GRmax, 72 h; higher = less effect;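 note: breast cell lines in 384-well plates, nine doses across a 10^4 range, Dye Drop imaging of viable cells vs DMSO and time-zero plates, GR 0 means no net growth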
SUM159 = test: GRmax, 72 h; higher = less effect;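 note: breast cell lines in 384-well plates, nine doses across a 10^4 range, Dye Drop imaging of viable cells vs DMSO and time-zero plates, GR 0 means no net growth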
SUM229PE = test: GRmax, 72 h; higher = less effect;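 note: breast cell lines in 384-well plates, nine doses across a 10^4 range, Dye Drop imaging of viable cells vs DMSO and time-zero plates, GR 0 means no net growth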
CAL51 = test: area over the GR curve, 72 h; higher = more effect;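 note: Dye Drop or Deep Dye Drop imaging of viable cells in 384-well plates (Hoechst nuclei, LIVE/DEAD dye), nine half-log doses, GR normalized to DMSO controls and time-zero plates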
CAMA1 = test: area over the GR curve, 72 h; higher = more effect;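 note: Dye Drop or Deep Dye Drop imaging of viable cells in 384-well plates (Hoechst nuclei, LIVE/DEAD dye), nine half-log doses, GR normalized to DMSO controls and time-zero plates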
HCC1954 = test: area over the GR curve, 72 h; higher = more effect;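 note: Dye Drop or Deep Dye Drop imaging of viable cells in 384-well plates (Hoechst nuclei, LIVE/DEAD dye), nine half-log doses, GR normalized to DMSO controls and time-zero plates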
HCC38 = test: area over the GR curve, 72 h; higher = more effect;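 note: Dye Drop or Deep Dye Drop imaging of viable cells in 384-well plates (Hoechst nuclei, LIVE/DEAD dye), nine half-log doses, GR normalized to DMSO controls and time-zero plates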
HTERT_HME1 = test: area over the GR curve, 72 h; higher = more effect
MDAMB175VII = test: area over the GR curve, 72 h; higher = more effect
MGH312 = test: area over the GR curve, 72 h; higher = more effect
SUM52PE = test: area over the GR curve, 72 h; higher = more effect
ZR751 = test: area over the GR curve, 72 h; higher = more effect
ZR7530 = test: area over the GR curve, 72 h; higher = more effect

SMILES	GRmax, 72 h (MDAMB231) [GR]	GRmax, 72 h (SUM159) [GR]	GRmax, 72 h (SUM229PE) [GR]	area over the GR curve (CAL51) [GR]	area over the GR curve (CAMA1) [GR]	area over the GR curve (HCC1954) [GR]	area over the GR curve (HCC38) [GR]	area over the GR curve (HTERT_HME1) [GR]	area over the GR curve (MDAMB175VII) [GR]	area over the GR curve (MGH312) [GR]	area over the GR curve (SUM52PE) [GR]	area over the GR curve (ZR751) [GR]	area over the GR curve (ZR7530) [GR]
CNCc1ccc(-c2[nH]c3cc(F)cc4c3c2CCNC4=O)cc1 [Rucaparib] (max 10 µM)	0.634	0.799	0.888	0.0888	0.0981	0.059	0.139	0.121	0.136	0.189	0.0094	0.0837	0.25
CC1(N)CCN(c2cnc(-c3cccc(Cl)c3Cl)c(N)n2)CC1 [SHP099] (max 10 µM)	0.943	0.821	0.936	0.03	0.0525	0.0791	0.172	0.0778	0.238	-0.0302	-0.0423	0.0364	-0.0067
CN1CCN(CCOc2cc(OC3CCOCC3)c3c(Nc4c(Cl)ccc5c4OCO5)ncnc3c2)CC1 [Saracatinib/AZD0530] (max 10 µM)	0.28	0.723	0.236	0.227	0.0262	0.191	0.101	-0.0453	0.762	0.537	0.0817	0.163	0.399
Cc1cc(C(C)Nc2ccccc2)c2nc(N3CCOCC3)cc(=O)n2c1 (stereo unspecified) [TGX221] (max 10 µM)	0.851	1.02	0.994	-0.0117	0.0019	-0.0656	-0.0299	-0.0608	-0.0733	0.472	0.0531	0.354	-0.0239
CN(C)C/C=C/C(=O)Nc1ccc(C(=O)Nc2cccc(Nc3ncc(Cl)c(-c4c[nH]c5ccccc45)n3)c2)cc1 [THZ1] (max 1 µM)	-0.505	-0.122	-0.297	0.161	0.459	0.31	0.525	0.76	0.487	0.97	0.527	0.162	0.561
CN(C)C/C=C/C(=O)Nc1ccc(C(=O)N2CCC[C@@H](Nc3ncc(Cl)c(-c4c[nH]c5ccccc45)n3)C2)cc1 [THZ531] (max 1 µM)	-0.276	0.627	-0.146	0.0896	0.241	0.143	0.223	0.182	0.567	0.636	0.222	0.124	0.472
CN(C)C/C=C/C(=O)Nc1ccc(C(=O)Nc2cccc(Nc3cc(-c4c[nH]c5ccccc45)ncn3)c2)cc1 [THZ-P1-2] (max 10 µM)	-0.691	-0.394	-0.655	0.0155	0.309	0.114	0.181	0.107	0.458	0.127	0.129	0.0386	0.474
